For assay [1], the system named is human induced pluripotent stem cells. Description: Etoposide sensitivity assay (ESA), Annexin V/PI flow cytometry. It is filed as cell-based. The settings on record: for EC50: Homo sapiens, 24 h. The procedure:
An assay for assessing pluripotency or for releasing a stem cell population for clinical diagnostic or therapeutic use can include obtaining a series of cell samples from the population being assessed. Each of these samples can be contacted with an increasing concentration of one or more DNA damaging agent(s). Any appropriate length of time can be used for the incubation period. For example, the cells can be incubated as 37° C. for between about 30 minutes and about 48 hours (e.g., between about 30 minutes and about 36 hours, between about 30 minutes and about 24 hours, or between about 1 hour and about 24 hours). After this contacting step, the cells can be evaluated using, for example, flow cytometry to determine how susceptible the cells are to apoptosis. In some cases, flow cytometry can be carried out as follows. Briefly, pluripotent stem cells can be seeded in plates (e.g., 24 well plates) and treated with etoposide (Sigma-Aldrich) or DMSO for a period of time (e.g., about 24 hours) at, for example, about 50% confluence. Media and cells can be stained with Annexin V FITC/PI and analyzed via flow cytometry (e.g., via a Gallios (Beckman Coulter) flow cytometer). Data analysis can be performed using Kaluza (Beckman Coulter) software and normalized by dividing the triplicate means (viable non-staining cells) by the corresponding DMSO control. Human pluripotent stem cell clones were assessed for etoposide sensitivity as follows. Mechanically processed hiPSC's were seeded onto a 24-well plate (1×60 mm dish: 1×24-well plate), maintained for 3-5 days, and subsequently treated with etoposide (1, 10, 50, 100, 250, 500, and 1,000 nM, all performed in triplicate wells) or vehicle control (DMSO) for 24 hours. Conditioned media was collected into appropriately labeled 12×75 mm flow tubes, and 200 μL of TryPLE was added to each well. Following a brief incubation at 37° C. (5-10 minutes), 1 mL of pre-warmed (37° C.) FAC's buffer (4 mM EDTA, 0.5% FBS, 1×DPBS pH 7.4 w/o Ca^2+, Mg^2+) was added to each well. The total well contents were transferred to their corresponding conditioned media tubes, and all tubes were spun down at 400×G for 5 minutes. Tubes were washed 1× with ice-cold Annexin Binding Buffer (ABB, 10 mM HEPES, 2.5 mM CaCl2, 140 mM NaCl, pH 7.4) and stained with Annexin-FITC (BD 556420, 5 μL in 100 μL total ABB per tube) for 30 minutes on ice while protected from light. All tubes were washed 1× in ABB, and the resulting cell pellets were resuspended in 400 μL of ABB supplemented with 1 μL of 1 mg/mL propidium iodide (Sigma-Aldrich, P4864). Samples were immediately assayed by flow cytometry (Gallios, Beckman Coulter), and data were subsequently analyzed for percent viability using Kaluza software (Beckman Coulter).

Assay [2] concerns cardiomyocytes differentiated from hiPSC's. Description: Etoposide sensitivity assay during cardiomyocyte differentiation of hiPSC's. It is filed as cell-based, human. The settings on record: mature, beating cardiomyocytes (Day 9).

Here are results for one compound from patent publication US20160109432A1, “METHODS AND MATERIALS FOR ASSESSING PLURIPOTENCY OF STEM CELL POPULATIONS” (Mayo Foundation for Medical Education and Research, priority 2014, published 2016).

Some results are limits rather than exact numbers.

Usually EC50 stands for the concentration giving half of the maximal effect.

Turning to `COc1cc([C@@H]2c3cc4c(cc3[C@@H](O[C@@H]3O[C@@H]5CO[C@@H](C)O[C@H]5[C@H](O)[C@H]3O)[C@H]3COC(=O)[C@H]23)OCO4)cc(OC)c1O` [etoposide], the EC50 in assay [1] (cleaned (C) hiPSC cultures after removal of poor quality clones/cells, 24 hours) was below 300 nM; in assay [1] (poor quality clones/cells from unclean (UC) hiPSC cultures, feeder free), above 300 nM. In addition, the etoposide sensitivity result in assay [1] (Sendai virus derived hiPSC clones compared to lentivirus reprogrammed clones, 126 clones) is on record as “significant decrease in etoposide sensitivity”; in assay [1] (hiPSC clones of poor quality and cellular differentiation, feeder free conditions) it was “reduced or negligible etoposide sensitivity”. Besides, the sensitivity to etoposide entry in assay [1] (hiPSC lines RT 4.1 and RT 6.21 compared with other hiPSC lines, 24 hours) was “greatest sensitivity”; in assay [2] it was “near complete lack of sensitivity”.
